The text below walks through data of ChEMBL document CHEMBL5149992, “Discovery, Optimization, and Evaluation of Quinazolinone Derivatives with Novel Linkers as Orally Efficacious Phosphoinositide-3-Kinase Delta Inhibitors for Treatment of Inflammatory Diseases” (J Med Chem, 2021).

The source made the active and inactive calls. The calls are words filed in the database; no cut-off is given here.

The conditions of data set [1]: human, microsomes, 10 µM.
Data set [2] has as its target T1, Phosphatidylinositol 4,5-bisphosphate 3-kinase catalytic subunit alpha isoform (Homo sapiens, UniProt P42336). Put plainly: Inhibition of PI3Kalpha (unknown origin).
The target of data set [3] is T2, Phosphatidylinositol 4,5-bisphosphate 3-kinase catalytic subunit delta isoform (Homo sapiens) (UniProt O00329).
T2 sequence (whole entry): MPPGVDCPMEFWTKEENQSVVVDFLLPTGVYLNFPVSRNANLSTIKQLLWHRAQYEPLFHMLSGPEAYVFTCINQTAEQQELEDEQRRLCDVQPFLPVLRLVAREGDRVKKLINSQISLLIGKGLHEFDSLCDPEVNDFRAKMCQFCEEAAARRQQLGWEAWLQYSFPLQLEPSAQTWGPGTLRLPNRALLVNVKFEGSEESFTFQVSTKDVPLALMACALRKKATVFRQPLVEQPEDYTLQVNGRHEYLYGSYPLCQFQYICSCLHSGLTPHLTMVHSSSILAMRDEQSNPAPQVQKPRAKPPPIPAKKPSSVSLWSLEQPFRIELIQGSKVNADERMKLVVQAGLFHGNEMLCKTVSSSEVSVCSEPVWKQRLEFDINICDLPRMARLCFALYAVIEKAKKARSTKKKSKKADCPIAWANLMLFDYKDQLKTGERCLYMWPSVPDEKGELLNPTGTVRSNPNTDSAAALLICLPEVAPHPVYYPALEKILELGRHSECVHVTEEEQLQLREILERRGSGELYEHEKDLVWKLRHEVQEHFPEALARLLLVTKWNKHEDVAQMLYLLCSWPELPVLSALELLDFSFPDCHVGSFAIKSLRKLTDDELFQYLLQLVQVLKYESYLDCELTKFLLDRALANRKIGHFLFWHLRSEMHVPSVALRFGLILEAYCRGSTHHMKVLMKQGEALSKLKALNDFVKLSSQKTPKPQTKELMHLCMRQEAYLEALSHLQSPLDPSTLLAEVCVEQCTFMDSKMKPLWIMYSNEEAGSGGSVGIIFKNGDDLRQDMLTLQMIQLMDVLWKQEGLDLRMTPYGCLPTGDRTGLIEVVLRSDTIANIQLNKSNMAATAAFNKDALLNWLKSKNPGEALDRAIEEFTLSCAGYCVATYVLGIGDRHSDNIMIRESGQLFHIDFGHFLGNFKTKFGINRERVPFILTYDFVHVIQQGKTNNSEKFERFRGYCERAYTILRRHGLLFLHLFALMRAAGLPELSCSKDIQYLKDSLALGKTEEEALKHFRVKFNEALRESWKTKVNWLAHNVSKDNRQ
Put plainly: Inhibition of PI3Kdelta (unknown origin) at 0.01 uM using phosphatidylinositol as substrate incubated for 30 mins in presence of ATP by HTRF based assay relative to control.

For data set [4], the target named is T3, Phosphatidylinositol 4,5-bisphosphate 3-kinase catalytic subunit delta isoform (Homo sapiens, UniProt O00329).
T3 sequence (O00329 whole entry): T2 sequence (whole entry)
Put plainly: Inhibition of PI3Kdelta (unknown origin).

A further data set in a line: in vitro. To be noted: human, liver microsomes.
Data set [5] addresses T4, Phosphatidylinositol 4,5-bisphosphate 3-kinase catalytic subunit beta isoform (Homo sapiens, UniProt P42338). Put plainly: Inhibition of PI3Kbeta (unknown origin).
Target sequence in this assay (P42338 whole entry, canonical isoform): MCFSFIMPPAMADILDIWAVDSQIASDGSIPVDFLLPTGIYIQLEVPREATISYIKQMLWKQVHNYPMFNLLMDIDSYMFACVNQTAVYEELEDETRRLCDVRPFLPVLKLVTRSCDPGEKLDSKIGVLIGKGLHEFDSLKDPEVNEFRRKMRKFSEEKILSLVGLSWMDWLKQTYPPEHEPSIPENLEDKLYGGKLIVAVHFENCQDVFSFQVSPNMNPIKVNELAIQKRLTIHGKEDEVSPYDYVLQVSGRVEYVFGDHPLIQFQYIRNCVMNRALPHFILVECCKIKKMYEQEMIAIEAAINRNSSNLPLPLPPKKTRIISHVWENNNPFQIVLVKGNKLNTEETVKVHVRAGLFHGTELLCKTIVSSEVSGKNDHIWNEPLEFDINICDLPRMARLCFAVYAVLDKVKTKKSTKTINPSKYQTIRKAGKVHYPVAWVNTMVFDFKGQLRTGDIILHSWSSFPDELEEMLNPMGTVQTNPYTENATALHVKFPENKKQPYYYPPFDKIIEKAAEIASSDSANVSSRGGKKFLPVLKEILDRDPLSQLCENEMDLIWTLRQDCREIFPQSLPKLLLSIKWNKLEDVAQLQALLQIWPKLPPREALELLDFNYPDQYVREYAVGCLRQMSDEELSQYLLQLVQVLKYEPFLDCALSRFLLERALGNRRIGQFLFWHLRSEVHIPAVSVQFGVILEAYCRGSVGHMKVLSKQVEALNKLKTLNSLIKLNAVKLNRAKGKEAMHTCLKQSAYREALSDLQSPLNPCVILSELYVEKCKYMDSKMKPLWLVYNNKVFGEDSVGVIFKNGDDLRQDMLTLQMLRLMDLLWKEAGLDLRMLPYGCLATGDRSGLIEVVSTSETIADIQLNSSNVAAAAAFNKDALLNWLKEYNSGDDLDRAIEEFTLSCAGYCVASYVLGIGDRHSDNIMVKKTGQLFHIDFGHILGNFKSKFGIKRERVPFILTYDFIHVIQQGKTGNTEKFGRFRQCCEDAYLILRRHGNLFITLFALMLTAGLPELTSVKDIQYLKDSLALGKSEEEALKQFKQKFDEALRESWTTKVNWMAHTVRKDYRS
In data set [6] the target is T5, Phosphatidylinositol 4,5-bisphosphate 3-kinase catalytic subunit gamma isoform (Homo sapiens, UniProt P48736). Put plainly: Inhibition of PI3Kgamma (unknown origin).
Target sequence in this assay (P48736 whole entry, canonical isoform): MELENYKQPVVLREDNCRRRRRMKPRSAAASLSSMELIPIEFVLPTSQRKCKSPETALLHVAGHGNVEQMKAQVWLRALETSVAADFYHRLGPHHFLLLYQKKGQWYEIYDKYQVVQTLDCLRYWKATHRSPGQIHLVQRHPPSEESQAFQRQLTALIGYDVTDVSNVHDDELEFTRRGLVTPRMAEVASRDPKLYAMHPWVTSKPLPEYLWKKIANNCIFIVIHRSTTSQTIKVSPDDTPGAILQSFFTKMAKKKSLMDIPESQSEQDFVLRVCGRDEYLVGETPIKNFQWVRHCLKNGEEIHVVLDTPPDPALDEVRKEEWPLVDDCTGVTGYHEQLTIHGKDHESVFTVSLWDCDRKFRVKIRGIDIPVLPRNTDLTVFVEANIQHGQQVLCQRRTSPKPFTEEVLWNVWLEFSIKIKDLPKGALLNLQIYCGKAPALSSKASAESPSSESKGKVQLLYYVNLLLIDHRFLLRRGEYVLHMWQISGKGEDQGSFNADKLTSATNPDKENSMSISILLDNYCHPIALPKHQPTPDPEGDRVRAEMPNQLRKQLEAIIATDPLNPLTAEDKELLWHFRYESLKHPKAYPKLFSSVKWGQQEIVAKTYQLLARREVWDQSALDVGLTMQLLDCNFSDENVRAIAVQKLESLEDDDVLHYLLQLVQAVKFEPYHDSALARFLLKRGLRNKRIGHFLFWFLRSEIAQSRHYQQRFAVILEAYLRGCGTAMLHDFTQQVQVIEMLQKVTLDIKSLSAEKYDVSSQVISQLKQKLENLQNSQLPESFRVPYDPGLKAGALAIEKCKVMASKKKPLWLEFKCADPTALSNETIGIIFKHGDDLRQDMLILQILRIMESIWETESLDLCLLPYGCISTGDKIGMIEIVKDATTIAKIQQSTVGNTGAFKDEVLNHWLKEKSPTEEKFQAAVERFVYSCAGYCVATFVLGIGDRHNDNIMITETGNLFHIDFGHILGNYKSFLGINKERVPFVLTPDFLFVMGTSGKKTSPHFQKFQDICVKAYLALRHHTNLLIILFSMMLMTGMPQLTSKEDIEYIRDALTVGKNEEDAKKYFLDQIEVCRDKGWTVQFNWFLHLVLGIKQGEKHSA
Data set [7] has as its target T2, Phosphatidylinositol 4,5-bisphosphate 3-kinase catalytic subunit delta isoform (Homo sapiens). Put plainly: Inhibition of PI3Kdelta (unknown origin) at 0.1 uM using phosphatidylinositol as substrate incubated for 30 mins in presence of ATP by HTRF based assay relative to control. In general terms: TR-FRET usually uses a lanthanide donor and a delayed reading to cut background.

Data set [8] concerns the target T1, Phosphatidylinositol 4,5-bisphosphate 3-kinase catalytic subunit alpha isoform. Put plainly: Inhibition of PI3Kalpha (unknown origin) at 0.1 uM relative to control.
The target of data set [9] is T4, Phosphatidylinositol 4,5-bisphosphate 3-kinase catalytic subunit beta isoform. Put plainly: Inhibition of PI3Kbeta (unknown origin) at 0.1 uM relative to control.
Target sequence in this assay (P42338 whole entry, looked up, canonical isoform): as the sequence (P42338 whole entry, canonical isoform) above
For data set [10], the target named is T5, Phosphatidylinositol 4,5-bisphosphate 3-kinase catalytic subunit gamma isoform. Put plainly: Inhibition of PI3Kgamma (unknown origin) at 0.1 uM relative to control.
Target sequence in this assay (P48736 whole entry, looked up, canonical isoform): as the sequence (P48736 whole entry, canonical isoform) above
Data set [11] is described as follows: Toxicity in mouse at 100 mg/kg, po. The format is organism-based. To be noted: in vivo.
Data set [12] addresses T2, Phosphatidylinositol 4,5-bisphosphate 3-kinase catalytic subunit delta isoform (Homo sapiens). Put plainly: Inhibition of PI3Kdelta (unknown origin) at 0.1 uM relative to control.
The subject of another data set is Mus musculus. Put plainly: Antiarthritic activity in collagen-induced rheumatoid arthritis DBA1/J mouse model assessed as reduction in disease severity at 20 mg/kg, po qd measured once daily for 24 to 27 days. The format is functional, organism-based. To be noted: time 24-27 day.
The target of data set [13] is Phosphatidylinositol 4,5-bisphosphate 3-kinase catalytic subunit gamma isoform (Mus musculus, UniProt Q9JHG7). Put plainly: Inhibition of PI3Kgamma in c5a-stimulated mouse RAW264.7 cells assessed as reduction in AKT phosphorylation at S473 residue incubated for 30 mins. The format is cell-based.
Chain of Phosphatidylinositol 4,5-bisphosphate 3-kinase catalytic subunit gamma isoform (Mus musculus, UniProt Q9JHG7) (Q9JHG7 whole entry, canonical isoform): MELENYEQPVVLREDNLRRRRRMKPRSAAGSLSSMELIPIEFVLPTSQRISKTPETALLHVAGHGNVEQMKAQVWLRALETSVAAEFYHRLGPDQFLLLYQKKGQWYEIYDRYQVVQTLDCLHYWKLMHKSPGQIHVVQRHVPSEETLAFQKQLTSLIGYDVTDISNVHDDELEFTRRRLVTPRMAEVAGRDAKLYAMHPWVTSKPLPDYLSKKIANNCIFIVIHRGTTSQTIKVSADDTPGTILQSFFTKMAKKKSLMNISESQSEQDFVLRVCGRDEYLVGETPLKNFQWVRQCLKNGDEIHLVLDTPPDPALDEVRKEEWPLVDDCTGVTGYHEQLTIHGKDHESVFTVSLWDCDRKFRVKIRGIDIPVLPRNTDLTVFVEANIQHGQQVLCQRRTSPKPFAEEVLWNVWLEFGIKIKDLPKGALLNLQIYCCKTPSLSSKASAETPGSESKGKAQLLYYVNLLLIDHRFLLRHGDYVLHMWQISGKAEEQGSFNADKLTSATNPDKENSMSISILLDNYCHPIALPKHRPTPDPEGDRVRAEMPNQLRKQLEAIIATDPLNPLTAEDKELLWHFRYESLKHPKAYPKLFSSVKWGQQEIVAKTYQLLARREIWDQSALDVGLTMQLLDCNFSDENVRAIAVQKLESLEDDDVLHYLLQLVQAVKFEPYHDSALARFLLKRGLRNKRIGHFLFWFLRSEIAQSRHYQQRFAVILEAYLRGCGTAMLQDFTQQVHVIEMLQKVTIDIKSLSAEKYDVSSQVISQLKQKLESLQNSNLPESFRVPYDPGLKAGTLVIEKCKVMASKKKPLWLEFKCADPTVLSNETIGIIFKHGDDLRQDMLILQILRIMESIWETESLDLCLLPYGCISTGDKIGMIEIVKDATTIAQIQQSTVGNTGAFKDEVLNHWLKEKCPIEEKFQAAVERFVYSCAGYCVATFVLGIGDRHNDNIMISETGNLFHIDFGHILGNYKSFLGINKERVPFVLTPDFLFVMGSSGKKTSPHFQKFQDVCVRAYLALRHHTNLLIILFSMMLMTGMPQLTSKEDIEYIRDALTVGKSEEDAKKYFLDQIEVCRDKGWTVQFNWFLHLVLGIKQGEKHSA

T1 sequence (P42336 whole entry, canonical isoform): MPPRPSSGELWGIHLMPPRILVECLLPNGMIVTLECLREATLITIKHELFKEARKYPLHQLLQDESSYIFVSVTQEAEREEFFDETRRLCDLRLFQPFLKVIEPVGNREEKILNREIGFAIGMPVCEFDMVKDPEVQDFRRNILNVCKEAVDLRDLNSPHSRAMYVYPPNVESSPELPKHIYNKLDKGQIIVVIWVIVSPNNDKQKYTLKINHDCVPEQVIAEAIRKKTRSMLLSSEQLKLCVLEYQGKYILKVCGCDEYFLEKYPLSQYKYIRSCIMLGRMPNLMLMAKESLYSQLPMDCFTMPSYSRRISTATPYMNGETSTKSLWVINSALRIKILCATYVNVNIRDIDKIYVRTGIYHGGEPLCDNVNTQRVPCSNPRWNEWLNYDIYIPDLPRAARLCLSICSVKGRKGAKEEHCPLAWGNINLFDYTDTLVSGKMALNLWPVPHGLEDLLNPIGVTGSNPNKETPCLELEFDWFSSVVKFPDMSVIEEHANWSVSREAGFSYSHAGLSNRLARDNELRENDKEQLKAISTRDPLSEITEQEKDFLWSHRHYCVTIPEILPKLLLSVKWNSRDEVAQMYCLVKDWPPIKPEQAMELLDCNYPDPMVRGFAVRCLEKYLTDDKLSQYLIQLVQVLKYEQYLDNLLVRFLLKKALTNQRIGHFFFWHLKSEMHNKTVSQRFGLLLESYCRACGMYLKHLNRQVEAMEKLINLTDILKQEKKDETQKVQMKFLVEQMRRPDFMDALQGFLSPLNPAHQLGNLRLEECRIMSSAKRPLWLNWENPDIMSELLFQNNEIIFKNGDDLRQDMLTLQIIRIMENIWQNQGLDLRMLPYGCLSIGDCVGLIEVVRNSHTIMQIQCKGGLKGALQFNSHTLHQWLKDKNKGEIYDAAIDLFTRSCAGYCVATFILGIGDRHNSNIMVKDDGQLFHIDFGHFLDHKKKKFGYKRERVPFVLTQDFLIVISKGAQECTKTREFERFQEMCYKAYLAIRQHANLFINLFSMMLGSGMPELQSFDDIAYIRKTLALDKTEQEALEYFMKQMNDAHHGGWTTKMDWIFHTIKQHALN

In [1], `N#Cc1c(N)ncnc1N1CC2(CC2)C[C@H]1c1nc2cccc(Cl)c2c(=O)n1-c1ccccc1` displayed a CLH of 27.6 mL/min/g. Further, the IC50 is > 1 µM in [2], 0.02 µM in data set [4], > 1 µM in data set [5] and 0.655 µM in [6]. Moreover, the inhibition in data set [3] is 23%; in [7], 83%. Further, the half-life at 60 h, 10 µM in the data set “in vitro” was found to be 0.837 h.
Turning to `N#Cc1c(N)ncnc1N1[C@H](c2nc3cccc(Cl)c3c(=O)n2-c2cc(F)cc(F)c2)C[C@@H]2CCCC[C@@H]21`, the CLH in data set [1] is < 12 mL/min/g. The IC50 in data set [2] was > 1 µM; in data set [4], 0.142 µM; in [5], > 1 µM; in [6], > 1 µM. In addition, the half-life at 60 h, 10 µM in the data set “in vitro” is > 2 h.
In the case of `N#Cc1c(N)ncnc1N1[C@H](c2nc3cccc(Cl)c3c(=O)n2-c2cccnc2)C[C@@H]2CCCC[C@@H]21`, the inhibition in [8] stood at 17%; in data set [9], 17%; in data set [10] it was 3%. The molecule further displayed a CLH in data set [1] of 5.4 mL/min/g. This molecule also registered an IC50 in [4] of 0.05 µM. In “in vitro”, this molecule gave a half-life at 60 h, 10 µM of 4.28 h.
In [1], `C[C@H]1CC[C@@H](c2nc3cccc(Cl)c3c(=O)n2-c2ccccc2)N1c1ncnc(N)c1C#N` gave a CLH of 22.6 mL/min/g. In addition, the IC50 in [2] was > 1 µM; in [4] it was 0.005 µM; in data set [5], 0.968 µM; in data set [6], 0.144 µM. In the data set “in vitro”, this molecule gave a half-life at 60 h, 10 µM of 1.02 h.
As to `Nc1nc(N2CCC[C@H]2c2nc3cccc(Cl)c3c(=O)n2-c2ccccc2)c2nc[nH]c2n1`, the CLH in data set [1] worked out at 21.8 mL/min/g. Further, the half-life at 60 h, 10 µM in “in vitro” was found to be 1.06 h.
In data set [1], `C=CCO[C@@H]1C[C@@H](c2nc3cccc(Cl)c3c(=O)n2-c2ccccc2)N(c2ncnc(N)c2C#N)C1` came in with a CLH of 767 mL/min/g. For the same molecule, the inhibition worked out at 17% in [3] and 47% in data set [7]. For the same molecule, 0.067 µM corresponded to half-maximal inhibition in data set [4] (IC50). Further, the half-life at 60 h, 10 µM in “in vitro” was determined as 0.03 h.
As to `C[C@H]1CC[C@@H](c2nc3cccc(Cl)c3c(=O)n2-c2cccnc2)N1c1ncnc(N)c1C#N`, the figures for the inhibition in [8] and in [9] were 18% and 45%, respectively. In data set [1], the CLH is 13.4 mL/min/g. Moreover, the values for the IC50 in data set [4] and in data set [6] were 0.004 µM and 0.351 µM, respectively. The molecule further displayed a half-life at 60 h, 10 µM in “in vitro” of 1.72 h.
`C[C@H]1CC[C@@H](c2nc3cccc(Cl)c3c(=O)n2-c2cccc(F)c2)N1c1ncnc(N)c1C#N`: in data set [1], the CLH turned out to be 10.4 mL/min/g. In addition, the IC50 in [2] was > 1 µM; in data set [4], 0.003 µM; in data set [5], > 1 µM; in data set [6] it was 0.199 µM. The molecule also showed a half-life at 60 h, 10 µM in the data set “in vitro” of 2.22 h.
For the molecule `C[C@H]1CC[C@@H](c2nc3cccc(Cl)c3c(=O)n2-c2cccc(F)c2)N1c1nc(N)nc2[nH]cnc12`, the inhibition in [8] was found to be 42%; in [9], 43%. Also, the IC50 in data set [4] and in [6] was 0.009 µM throughout.
As to `N#Cc1c(N)ncnc1N1CC(F)(F)C[C@H]1c1nc2cccc(Cl)c2c(=O)n1-c1ccccc1`, in data set [1], the CLH stood at 8.2 mL/min/g. In addition, the IC50 is > 1 µM in data set [2], 0.033 µM in [4], > 1 µM in data set [5] and > 1 µM in data set [6]. Besides, the values for the inhibition in data set [3] and in data set [7] were 15% and 60%, respectively. The molecule also came in with a half-life at 60 h, 10 µM in “in vitro” of 2.82 h. Moreover, the Activity result in data set [11] is “Toxic”.
Regarding `C[C@H]1CC[C@@H](c2nc3cccc(Cl)c3c(=O)n2-c2ccccc2)N1c1nc(N)nc2[nH]cnc12`, the inhibition in data set [8] is 22%; in data set [9], 69%. In addition, in data set [1], the CLH is 3.8 mL/min/g. The IC50 in data set [4] is 0.025 µM; in [6], 0.038 µM. In the data set “in vitro”, this molecule returned a half-life at 60 h, 10 µM of 6.08 h.
`N#Cc1c(N)ncnc1N1[C@H](c2nc3cccc(Cl)c3c(=O)n2-c2ccccc2)C[C@@H]2CCCC[C@@H]21`: the CLH in [1] turned out to be 19.8 mL/min/g. The half-inhibitory concentration (IC50) in data set [2] is > 1 µM; in [4] it was 0.09 µM; in data set [5] it was > 1 µM; in data set [6], > 1 µM. The values for the inhibition in data set [3] and in data set [7] were 10% and 43%, respectively. In addition, the half-life at 60 h, 10 µM in the data set “in vitro” was 1.17 h. The Activity result in [11] was “Non-Toxic”.
With `N#Cc1c(N)ncnc1N1[C@H](c2nc3cccc(Cl)c3c(=O)n2-c2cccc(OC(F)(F)F)c2)C[C@@H]2CCCC[C@@H]21`, in data set [12], the inhibition came out at 5%.
On to `CC[C@H](Nc1ncnc2[nH]cnc12)c1nc2cccc(F)c2c(=O)n1-c1ccccc1` [IDELALISIB], for which, in the data set on Mus musculus, the outcome was Active. Moreover, the IC50 in data set [13] amounted to 1.3 µM.
In the case of `C[C@H]1CC[C@@H](c2nc3cccc(Cl)c3c(=O)n2N2CCOCC2)N1c1ncnc(N)c1C#N`, the inhibition in [8] was 5%; in [9] it was 45%. In [1], this molecule came in with a CLH of 12.6 mL/min/g. Further, the half-maximal inhibitory concentration (IC50) came out at 0.01 µM in data set [4] and 0.295 µM in data set [6]. Besides, in “in vitro”, the half-life at 60 h, 10 µM is 1.83 h.
Molecule `N#Cc1c(N)ncnc1N1[C@H](c2nc3cccc(F)c3c(=O)n2-c2cc(F)cc(F)c2)C[C@@H]2CCCC[C@@H]21` showed a CLH in [1] of 2.4 mL/min/g. Moreover, the IC50 was > 1 µM in [2], 0.305 µM in [4], > 1 µM in data set [5] and > 1 µM in [6]. The half-life at 60 h, 10 µM in “in vitro” turned out to be 9.62 h.
In the case of `C=C1C[C@@H](c2nc3cccc(Cl)c3c(=O)n2-c2ccccc2)N(c2ncnc(N)c2C#N)C1`, the CLH in data set [1] came to 103.8 mL/min/g. Besides, the IC50 in data set [2] was > 1 µM; in [4], 0.003 µM; in data set [5], 0.819 µM; in data set [6], 0.25 µM. The results for the inhibition in data set [3] and in [7] were 79% and 102%, respectively. The half-life at 60 h, 10 µM in “in vitro” stood at 0.223 h.
As to `N#Cc1c(N)ncnc1N1[C@H](c2nc3cccc(Cl)c3c(=O)n2N2CCOCC2)C[C@@H]2CCCC[C@@H]21`, the inhibition in [8] was 24%; in data set [9], 43%; in data set [10], 5%. Also, the CLH in data set [1] amounted to 11 mL/min/g. This molecule also gave an IC50 in [4] of 0.014 µM. Besides, the half-life at 60 h, 10 µM in “in vitro” is 2.1 h.
In the case of `N#Cc1c(N)ncnc1N1[C@H](c2nc3cccc(Cl)c3c(=O)n2-c2cccc(F)c2)C[C@@H]2CCCC[C@@H]21`, the inhibition in data set [8] was found to be 4%; in [9], 17%; in [10], 5%. In data set [1], the CLH was found to be 10 mL/min/g. In addition, in data set [4], inhibition was half-maximal at 0.034 µM (IC50). For the same molecule, the half-life at 60 h, 10 µM in “in vitro” came to 2.31 h.
Take `C[C@H]1CC[C@@H](c2nc3cccc(Cl)c3c(=O)n2-c2cccc(F)c2)N1c1ncnc2[nH]ccc12`: the inhibition in [8] stood at 19%. The figures for the IC50 in data set [4] and in data set [6] were 0.03 µM and 0.074 µM, respectively.

By IC50 is commonly meant the concentration that inhibits the measured activity by half. For orientation: inhibition means the drop in the measured response relative to a control, in per cent. A word on the half-life: it is the time in which the quantity being followed falls by half. Lower therefore signals rapid decline.
